Measurements as given in ChEMBL document CHEMBL5126592, “Design, synthesis and activity against drug-resistant bacteria evaluation of C-20, C-23 modified 5-O-mycaminosyltylonolide derivatives” (Eur J Med Chem, 2022).
Values after ≈ are worked out from the molar mass of the structure shown.

Experiments:
[1] = Genotoxicity in Salmonella typhimurium TA98 assessed as number of revertants at 1.6x10^-6 mg/plate incubated for 72 hrs in presence of liver S9 fraction by Ames test (reference value: 43.67+/- 7.1); assay type: toxicity, subcellular; conditions: salmonella enterica subsp. enterica serovar typhimurium, s9, 72 h
Escherichia coli [2] = assay: Antibacterial activity against Escherichia coli ATCC 25922 incubated for 16 to 20 hrs using 10^3 CFU/ml bacterial inoculum by broth microdilution method; assay type: functional; conditions: time 16-20 hrs
Staphylococcus aureus [3] = assay: Antibacterial activity against Staphylococcus aureus ATCC 29213 incubated for 16 to 20 hrs using 10^3 CFU/ml bacterial inoculum by broth microdilution method; assay type: functional; conditions: time 16-20 hrs
Staphylococcus aureus [4] = assay: Antibacterial activity against Staphylococcus aureus ATCC 29213 at pH 8.6 incubated for 16 to 20 hrs in presence of 5% foetal bovine serum by broth microdilution method; assay type: functional; conditions: time 16-20 hrs
Escherichia coli [5] = assay: Antibacterial activity against Escherichia coli ATCC 25922 incubated for 16 to 20 hrs in presence of 25% foetal bovine serum by broth microdilution method; assay type: functional; conditions: time 16-20 hrs
Escherichia coli [6] = assay: Antibacterial activity against Escherichia coli ATCC 25922 at pH 7.8 incubated for 16 to 20 hrs by broth microdilution method; assay type: functional; conditions: time 16-20 hrs
Staphylococcus aureus [7] = assay: Antibacterial activity against Staphylococcus aureus ATCC 29213 at pH 7.8 incubated for 16 to 20 hrs by broth microdilution method; assay type: functional; conditions: time 16-20 hrs
[8] = Genotoxicity in Salmonella typhimurium TA102 assessed as number of revertants at 2x10^-4 mg/plate incubated for 72 hrs in absence of liver S9 fraction by Ames test (reference value: 386.67 +/- 23.44); assay type: toxicity; conditions: salmonella enterica subsp. enterica serovar typhimurium, s9, 72 h
Klebsiella pneumoniae = assay: Antibacterial activity against Klebsiella pneumoniae ATCC 13883 incubated for 16 to 20 hrs by broth microdilution method; assay type: functional; conditions: time 16-20 hrs
Escherichia coli [9] = assay: Antibacterial activity against Escherichia coli ATCC 25922 at pH 8.4 incubated for 16 to 20 hrs by broth microdilution method; assay type: functional; conditions: time 16-20 hrs
[10] = Toxicity in Kunming mouse infected with Staphylococcus aureus ATCC 25923 assessed as normal alveolar size and morphology at 20 to 40 mg/kg, iv measured after 1 hr by hematoxylin and eosin staining based microscopic analysis; assay type: organism-based; conditions: in vivo, dose 20-40 mg/kg
[11] = Genotoxicity in Salmonella typhimurium TA1535 assessed as number of revertants at 1.6x10^-6 mg/plate incubated for 72 hrs in absence of liver S9 fraction by Ames test (reference value: 14.33 +/- 0.58); assay type: toxicity; conditions: salmonella enterica subsp. enterica serovar typhimurium, s9, 72 h
[12] = Genotoxicity in Salmonella typhimurium TA100 assessed as number of revertants at 1.6x10^-6 mg/plate incubated for 72 hrs in presence of liver S9 fraction by Ames test (reference value: 204.33 +/- 8.14); assay type: toxicity, subcellular; conditions: salmonella enterica subsp. enterica serovar typhimurium, s9, 72 h
[13] = Genotoxicity in Salmonella typhimurium TA100 assessed as number of revertants at 1.6x10^-6 mg/plate incubated for 72 hrs in absence of liver S9 fraction by Ames test (reference value: 221.67 +/- 15.57); assay type: toxicity; conditions: salmonella enterica subsp. enterica serovar typhimurium, s9, 72 h
Cronobacter sakazakii = assay: Antibacterial activity against Cronobacter sakazakii ATCC 29544 incubated for 16 to 20 hrs by broth microdilution method; assay type: functional; conditions: time 16-20 hrs
Pseudomonas aeruginosa = assay: Antibacterial activity against Pseudomonas aeruginosa LTP-3 incubated for 16 to 20 hrs by broth microdilution method; assay type: functional; conditions: time 16-20 hrs
Staphylococcus aureus [14] = assay: Antibacterial activity against Staphylococcus aureus ATCC 29213 at pH 7.4 incubated for 16 to 20 hrs by broth microdilution method; assay type: functional; conditions: time 16-20 hrs
Staphylococcus aureus [15] = assay: Antibacterial activity against Staphylococcus aureus ATCC 29213 at pH 8 incubated for 16 to 20 hrs by broth microdilution method; assay type: functional; conditions: time 16-20 hrs
Escherichia coli [16] = assay: Antibacterial activity against Escherichia coli ATCC 25922 incubated for 16 to 20 hrs using 10^6 CFU/ml bacterial inoculum by broth microdilution method; assay type: functional; conditions: time 16-20 hrs
[17] = Toxicity in Kunming mouse infected with Staphylococcus aureus ATCC 25923 assessed as reduction in neutrophils at 20 to 40 mg/kg, iv measured after 1 hr by hematoxylin and eosin staining based microscopic analysis; assay type: organism-based; conditions: in vivo, dose 20-40 mg/kg
[18] = Genotoxicity in Salmonella typhimurium TA98 assessed as number of revertants at 1x10^-3 mg/plate incubated for 72 hrs in absence of liver S9 fraction by Ames test (reference value: 57.33 +/- 3.06); assay type: toxicity; conditions: salmonella enterica subsp. enterica serovar typhimurium, s9, 72 h
Escherichia coli [19] = assay: Bactericidal activity against Escherichia coli ATCC 25922 incubated for 20 to 24 hrs by CLSI based analysis; assay type: functional; conditions: time 20-24 hrs
[20] = Genotoxicity in Salmonella typhimurium TA98 assessed as number of revertants at 8x10^-6 mg/plate incubated for 72 hrs in presence of liver S9 fraction by Ames test (reference value: 43.67+/- 7.1); assay type: toxicity, subcellular; conditions: salmonella enterica subsp. enterica serovar typhimurium, s9, 72 h
[21] = Genotoxicity in Salmonella typhimurium TA1535 assessed as number of revertants at 1x10^-3 mg/plate incubated for 72 hrs in absence of liver S9 fraction by Ames test (reference value: 14.33 +/- 0.58); assay type: toxicity; conditions: salmonella enterica subsp. enterica serovar typhimurium, s9, 72 h
[22] = test system: Staphylococcus chromogenes; assay: Antibacterial activity against Staphylococcus chromogenes incubated for 16 to 20 hrs by broth microdilution method; assay type: functional; conditions: time 16-20 hrs
Staphylococcus aureus [23] = assay: Antibacterial activity against Staphylococcus aureus ATCC 29213 at pH 7.2 incubated for 16 to 20 hrs by broth microdilution method; assay type: functional; conditions: time 16-20 hrs
[24] = Genotoxicity in Salmonella typhimurium TA98 assessed as number of revertants at 1.6x10^-6 mg/plate incubated for 72 hrs in absence of liver S9 fraction by Ames test (reference value: 57.33 +/- 3.06); assay type: toxicity; conditions: salmonella enterica subsp. enterica serovar typhimurium, s9, 72 h
Escherichia coli [25] = assay: Antibacterial activity against Escherichia coli ATCC 25922 incubated for 16 to 20 hrs in presence of 5% foetal bovine serum by broth microdilution method; assay type: functional; conditions: time 16-20 hrs
Staphylococcus aureus [26] = assay: Antibacterial activity against Staphylococcus aureus ATCC 29213 incubated for 16 to 20 hrs using 10^5 CFU/ml bacterial inoculum by broth microdilution method; assay type: functional; conditions: time 16-20 hrs
[27] = Toxicity in Kunming mouse infected with Staphylococcus aureus ATCC 25923 assessed as normal alveolar wall thickness at 20 to 40 mg/kg, iv measured after 1 hr by hematoxylin and eosin staining based microscopic analysis; assay type: organism-based; conditions: in vivo, dose 20-40 mg/kg
Escherichia coli [28] = assay: Antibacterial activity against Escherichia coli ATCC 25922 at pH 6.6 incubated for 16 to 20 hrs by broth microdilution method; assay type: functional; conditions: time 16-20 hrs
Staphylococcus aureus [29] = assay: Antibacterial activity against Staphylococcus aureus ATCC 25923 incubated for 16 to 20 hrs by broth microdilution method; assay type: functional; conditions: time 16-20 hrs
[30] = Genotoxicity in Salmonella typhimurium TA1537 assessed as number of revertants at 1.6x10^-6 mg/plate incubated for 72 hrs in absence of liver S9 fraction by Ames test (reference value: 22.67 +/- 2.52); assay type: toxicity; conditions: salmonella enterica subsp. enterica serovar typhimurium, s9, 72 h
Staphylococcus aureus [31] = assay: Antibacterial activity against Staphylococcus aureus ATCC 29213 at pH 8.4 incubated for 16 to 20 hrs by broth microdilution method; assay type: functional; conditions: time 16-20 hrs
Staphylococcus aureus [32] = assay: Antibacterial activity against Staphylococcus aureus ATCC 29213 at pH 8.2 incubated for 16 to 20 hrs by broth microdilution method; assay type: functional; conditions: time 16-20 hrs
[33] = Genotoxicity in Salmonella typhimurium TA100 assessed as number of revertants at 1x10^-3 mg/plate incubated for 72 hrs in absence of liver S9 fraction by Ames test (reference value: 221.67 +/- 15.57); assay type: toxicity; conditions: salmonella enterica subsp. enterica serovar typhimurium, s9, 72 h

Molecule `CC[C@H]1OC(=O)C[C@@H](O)[C@H](C)[C@@H](O[C@@H]2O[C@H](C)[C@@H](O)[C@H](N(C)C)[C@H]2O)[C@@H](CCN(C)Cc2cn(-c3cnc4ccccc4c3)nn2)C[C@@H](C)C(=O)/C=C/C(C)=C/[C@@H]1CN1CCCCCC1` has an Activity [1] of 42.33, an MIC (Escherichia coli [2]) of 0.25 µg/mL (≈ 0.277 µM) and an MIC (Staphylococcus aureus [3]) of 0.0625 µg/mL (≈ 0.0693 µM). For the same molecule, the MIC (Staphylococcus aureus [4]) was 0.5 µg/mL, the MIC (Escherichia coli [5]) was 4 µg/mL and the MIC (Escherichia coli [6]) was 0.5 µg/mL (≈ 0.554 µM). The MIC (Staphylococcus aureus [7]) was ≤ 0.0625 µg/mL, the Activity [8] was 449.33 and the MIC (Klebsiella pneumoniae) was 1 µg/mL (≈ 1.11 µM). The MIC (Escherichia coli [9]) was 0.25 µg/mL (≈ 0.277 µM), the Activity [10] was “Non-Toxic” and the Activity [11] was 6.67. It also gave an Activity [12] of 162.67, an Activity [13] of 157.67 and an MIC (Cronobacter sakazakii) of 4 µg/mL (≈ 4.43 µM). For the same molecule, the MIC (Pseudomonas aeruginosa) was 0.5 µg/mL (≈ 0.554 µM), the MIC (Staphylococcus aureus [14]) was 0.25 µg/mL (≈ 0.277 µM) and the MIC (Staphylococcus aureus [15]) was ≤ 0.0625 µg/mL. The MIC (Escherichia coli [16]) was 0.5 µg/mL (≈ 0.554 µM), the Activity [17] was “Non-Toxic” and the Activity [18] was 60.33. The MBC (Escherichia coli [19]) was 2 µg/mL (≈ 2.22 µM), the Activity [20] was 45.67 and the Activity [21] was 5. It also gave an MIC [22] of 0.25 µg/mL (≈ 0.277 µM), an MIC (Staphylococcus aureus [23]) of 0.5 µg/mL (≈ 0.554 µM) and an Activity [24] of 64.33. For the same molecule, the MIC (Escherichia coli [25]) was 1 µg/mL, the MIC (Staphylococcus aureus [26]) was 0.125 µg/mL (≈ 0.139 µM) and the Activity [27] was “Non-Toxic”. The MIC (Escherichia coli [28]) was 32 µg/mL (≈ 35.5 µM), the MIC (Staphylococcus aureus [29]) was 0.125 µg/mL (≈ 0.139 µM) and the Activity [30] was 14.33. The MIC (Staphylococcus aureus [31]) was ≤ 0.0625 µg/mL, the MIC (Staphylococcus aureus [32]) was ≤ 0.0625 µg/mL and the Activity [33] was 231.
